Test results: PubChem BioAssay (NCI)
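Five compound concentrations were applied to cells in 96-well plates for 48 hours; endpoints were derived by simple linear interpolation of the resulting dose-response curve. The concentration for 50% growth inhibition is given as GI50. TGI marks complete inhibition of growth.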

Columns and labels:
Experiment in all cases: NCI-60 cell line screen, 48 h
OVCAR-8 ovarian = tested on: OVCAR-8 ovarian
NCI/ADR-RES ovarian = tested on: NCI/ADR-RES ovarian
HT29 colon = tested on: HT29 colon
SF-268 CNS = tested on: SF-268 CNS
PC-3 prostate = tested on: PC-3 prostate
DU-145 prostate = tested on: DU-145 prostate
DLD-1 colon = tested on: DLD-1 colon
SNB-78 CNS = tested on: SNB-78 CNS
XF 498 CNS = tested on: XF 498 CNS
KM20L2 colon = tested on: KM20L2 colon
HCT-116 colon = tested on: HCT-116 colon

Row | Structure (SMILES) | TGI (OVCAR-8 ovarian) | TGI (NCI/ADR-RES ovarian) | TGI (HT29 colon) | TGI (SF-268 CNS) | TGI (PC-3 prostate) | TGI (DU-145 prostate) | TGI (DLD-1 colon) | TGI (SNB-78 CNS) | TGI (XF 498 CNS) | TGI (KM20L2 colon) | TGI (HCT-116 colon) | GI50 (SNB-78 CNS) | GI50 (XF 498 CNS) | GI50 (KM20L2 colon) | GI50 (SF-268 CNS) | GI50 (HCT-116 colon) | GI50 (NCI/ADR-RES ovarian) | GI50 (PC-3 prostate) | GI50 (DU-145 prostate)
1 | N#Cc1c(C#N)c(SSc2c(C#N)c(C#N)c(N)n2-c2ccccc2)n(-c2ccccc2)c1N | > 100 µM | > 71.4 µM | > 59.1 µM | > 72 µM | 46.1 µM | 39 µM | – | – | – | – | – | – | – | – | – | – | – | – | –
2 | CN1OC(=O)N(C)C1c1ccccc1 (stereo not drawn) | > 100 µM | > 100 µM | > 100 µM | > 100 µM | – | – | > 100 µM | > 100 µM | > 100 µM | > 100 µM | > 100 µM | – | – | – | – | – | – | – | –
3 | CNC(=O)CN1CC(=O)N(C)C(=O)C1 | – | – | – | – | – | – | > 100 µM | > 100 µM | > 100 µM | > 100 µM | – | – | – | – | – | – | – | – | –
4 | O=C(O)CCC1(c2ccccc2)NC(=O)NC1=O (stereo not drawn) | > 100 µM | > 100 µM | > 100 µM | > 100 µM | > 100 µM | > 100 µM | – | – | – | – | > 100 µM | – | – | – | – | – | – | – | –
5 | COc1ccc2c(c1)c1cc(OC)ccc1n2CCCCOc1ccc(-c2c3ccccc3c(-c3ccc(OCCCCn4c5ccc(OC)cc5c5cc(OC)ccc54)cc3)c3ccccc23)cc1 | > 100 µM | – | – | > 100 µM | – | – | > 100 µM | – | > 100 µM | > 100 µM | > 100 µM | – | – | – | – | – | – | – | –
6 | CC(=O)Oc1c(OC(C)=O)c(-c2ccc(O)c(O)c2)c(O)c(O)c1-c1ccc(O)cc1 | > 100 µM | > 100 µM | > 100 µM | > 100 µM | – | – | > 100 µM | > 100 µM | > 100 µM | > 100 µM | > 100 µM | > 100 µM | 46 µM | 40.7 µM | 80.6 µM | 36.1 µM | – | – | –
7 | Nc1ccn(C2OC(COP(=O)(O)Oc3ccccc3)C(O)C2O)c(=O)n1 (stereo not drawn) | > 100 µM | > 100 µM | > 100 µM | > 100 µM | – | – | > 100 µM | > 100 µM | – | > 100 µM | > 100 µM | – | – | – | – | – | – | – | –
8 | COc1ccc(NC2=NCCO2)c2ccccc12 | > 10 µM | > 10 µM | > 10 µM | > 10 µM | > 10 µM | > 10 µM | – | – | – | – | > 10 µM | – | – | – | – | – | – | – | –
9 | Cc1nc(-c2nc([N+](=O)[O-])c([N+](=O)[O-])[nH]2)cs1 | – | – | > 100 µM | > 100 µM | – | – | > 100 µM | > 100 µM | > 100 µM | > 100 µM | > 100 µM | – | – | – | – | – | – | – | –
10 | CCN1/C(=C/C(C)=C/c2sc3ccccc3[n+]2CC)Sc2ccccc21 | 1.37 µM | – | 1.72 µM | 1.76 µM | – | – | – | 2.51 µM | 0.663 µM | 2.03 µM | 1.42 µM | – | – | – | – | – | – | – | –
11 | O/N=C\c1cc(O)c(O)c(/C=N/O)c1 | > 100 µM | > 100 µM | > 100 µM | > 100 µM | > 100 µM | > 100 µM | – | – | – | – | > 100 µM | – | – | – | – | – | – | – | –
12 | Cc1ccc2[nH]c3c(C)c4ccncc4c(C)c3c2c1 | 2.25 µM | 2.24 µM | 2.58 µM | 2.11 µM | – | – | 2.34 µM | 4.64 µM | 3 µM | 5.57 µM | 1.61 µM | – | – | – | – | – | – | – | –
13 | O=C(CCN1CCCC1)Nc1ccc2c(NCCCc3ccccc3)c3ccccc3nc2c1 | – | 71.9 µM | – | – | 1.94 µM | 2.09 µM | – | – | – | – | – | – | – | – | – | – | 15.1 µM | 0.566 µM | 0.886 µM
14 | COc1cc2c(cc1OC)CCN=C2 | > 100 µM | > 100 µM | > 100 µM | – | > 100 µM | > 100 µM | – | – | – | – | > 100 µM | – | – | – | – | – | – | – | –
